In PubChem BioAssay (NCI):
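96-well plates; 48 h exposure; 5 concentrations. Endpoints by linear interpolation between flanking doses. Not reached: highest tested concentration assigned. Here, GI50 denotes the concentration required for 50% inhibition of growth. TGI marks complete inhibition of growth.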

How the values were obtained:
Assay in all cases: NCI anticancer screen, dose series, 48 h
UACC-257 melanoma = tested on: UACC-257 melanoma
CCRF-CEM leukemia = tested on: CCRF-CEM leukemia
CAKI-1 renal = tested on: CAKI-1 renal
SK-OV-3 ovarian = tested on: SK-OV-3 ovarian
MOLT-4 leukemia = tested on: MOLT-4 leukemia
A498 renal = tested on: A498 renal
MDA-N = tested on: MDA-N
HS 578T breast = tested on: HS 578T breast
SK-MEL-2 melanoma = tested on: SK-MEL-2 melanoma
SNB-75 CNS = tested on: SNB-75 CNS

Structure (SMILES)	TGI (UACC-257 melanoma)	TGI (CCRF-CEM leukemia)	TGI (CAKI-1 renal)	TGI (SK-OV-3 ovarian)	TGI (MOLT-4 leukemia)	TGI (A498 renal)	TGI (MDA-N)	TGI (HS 578T breast)	TGI (SK-MEL-2 melanoma)	TGI (SNB-75 CNS)	GI50 (UACC-257 melanoma)	GI50 (CCRF-CEM leukemia)	GI50 (SNB-75 CNS)	GI50 (CAKI-1 renal)	GI50 (SK-OV-3 ovarian)	GI50 (MOLT-4 leukemia)	GI50 (A498 renal)	GI50 (SK-MEL-2 melanoma)
CCOC(=O)Cc1nc2c(N)ncnc2n1C1OC(COC(C)=O)C(OC(C)=O)C1OC(C)=O (stereo not given)	> 100 µM	> 100 µM	> 100 µM	> 100 µM	> 100 µM	> 100 µM	> 100 µM	> 100 µM	–	–	–	–	–	–	–	–	–	–
CC(=O)N1CCn2c1nc1cc(Cl)ccc12	> 100 µM	> 100 µM	> 100 µM	68 µM	> 100 µM	> 100 µM	> 100 µM	> 100 µM	92.4 µM	–	–	–	–	–	–	–	–	–
COc1cccc(/C=N/[N-]C(N)=O)c1[O-].[Cu+2].[OH3+].c1ccc(-c2ccccn2)nc1	> 100 µM	> 95.6 µM	83.7 µM	27.3 µM	> 100 µM	35.8 µM	–	–	45.1 µM	33.9 µM	–	–	–	–	–	–	–	–
CN1c2ccccc2N(C(=O)c2ccccc2)C(CC(=O)O)c2cccn21 (stereo not given)	> 100 µM	> 100 µM	> 100 µM	> 100 µM	> 100 µM	> 100 µM	–	–	> 100 µM	> 100 µM	–	–	–	–	–	–	–	–
CCOC(=O)C1=C(C)N(c2ccc(OC)cc2)C2(O)C=CC(=O)C3=C(O)c4ccccc4C(=O)C312 (stereo not given)	31.2 µM	15.9 µM	26.5 µM	31.1 µM	20.5 µM	27 µM	34 µM	33.5 µM	31 µM	–	–	–	–	–	–	–	–	–
CC(C)(C)N(Cc1ccc2c(c1)OCO2)C(=O)/C=C\Sc1ccccc1	> 100 µM	> 100 µM	> 100 µM	> 100 µM	> 100 µM	> 100 µM	> 100 µM	–	> 100 µM	–	–	–	–	–	–	–	–	–
CC(=O)[CH-]C(=O)c1ccccc1.CC(=O)[CH-]C(=O)c1ccccc1.C[C@]12CCC(=O)C=C1CC[C@@H]1C2CC[C@@]2(C)C1CC[C@]2(C)[O-].C[C@]12CCC(=O)C=C1CC[C@@H]1C2CC[C@@]2(C)C1CC[C@]2(C)[O-].Cl.[Ti+4] (stereo not given in full)	51.7 µM	> 100 µM	38.4 µM	53.1 µM	> 100 µM	31.1 µM	–	–	33.2 µM	43.7 µM	18 µM	9.78 µM	15.7 µM	13.3 µM	23.4 µM	12.5 µM	15.3 µM	13.9 µM
COc1cc2nc(-c3cccs3)[nH]c(=O)c2cc1OC	> 100 µM	> 100 µM	> 100 µM	> 100 µM	–	> 100 µM	–	> 100 µM	> 100 µM	> 100 µM	–	–	–	–	–	–	–	–
CC1(C)C(=O)C(C)(C)C1=S	> 100 µM	> 100 µM	> 100 µM	> 100 µM	> 100 µM	> 100 µM	–	–	> 100 µM	> 100 µM	–	–	–	–	–	–	–	–
Nc1ncnc2c1ncn2C1CC(OCc2ccccc2[N+](=O)[O-])C(CO)O1 (stereo not given)	> 50 µM	> 50 µM	–	> 50 µM	> 50 µM	> 50 µM	–	–	> 50 µM	–	–	–	–	–	–	–	–	–
CC1=NC(=Cc2ccc([N+](=O)[O-])cc2)C(=O)N1n1c(-c2ccccc2)nc2ccccc2c1=O	> 100 µM	> 100 µM	> 100 µM	> 100 µM	72.5 µM	–	> 100 µM	> 100 µM	–	> 100 µM	–	–	–	–	–	–	–	–
O=C(CCc1ccccc1)ON1C(=S)C(c2ccccc2)(c2ccccc2)N=C1Sc1ccccc1	> 100 µM	> 100 µM	> 100 µM	> 100 µM	28.6 µM	> 100 µM	–	> 100 µM	> 100 µM	> 100 µM	–	–	–	–	–	–	–	–
O=C(NNc1ccccc1)/C(=C/c1ccc2c(c1)OCO2)NC(=O)c1ccccc1	> 100 µM	> 100 µM	> 100 µM	> 100 µM	> 100 µM	> 100 µM	–	–	> 100 µM	> 100 µM	–	–	–	–	–	–	–	–
N#C/C(=C/NC(=S)c1ccncc1)C(N)=O	> 100 µM	–	> 100 µM	> 100 µM	> 100 µM	> 100 µM	> 100 µM	–	> 100 µM	> 100 µM	–	–	–	–	–	–	–	–
CNc1ncc(-c2nnnn2-c2ccccc2)c(CN(C)C)n1	> 100 µM	> 100 µM	> 100 µM	> 100 µM	> 100 µM	> 100 µM	–	> 100 µM	> 100 µM	> 100 µM	–	–	–	–	–	–	–	–
O=P(O)(O)C1(P(=O)(O)O)CC1	> 100 µM	> 100 µM	> 100 µM	> 100 µM	> 100 µM	> 100 µM	–	–	> 100 µM	> 100 µM	–	–	–	–	–	–	–	–
Nc1c(Cl)ncnc1NCCCNc1ncnc(Cl)c1N	> 100 µM	> 100 µM	> 100 µM	> 100 µM	> 100 µM	> 100 µM	–	–	> 100 µM	–	–	–	–	–	–	–	–	–
